Broadly, the IC50 is the concentration at which inhibition is half-maximal.

The text below walks through data of ChEMBL document CHEMBL6109050, “Synthesis of novel pyrrolobenzodiazepine (PBD) C1-substituted monomers and dimers with DNA-binding activity and cytotoxicity” (Bioorg Med Chem Lett, 2025).

The assay relates to MDA-MB-231. Kind of assay: Cytotoxicity against human MDA-MB-231 cells incubated for 72 hrs by MTT assay. The assay is classed as functional, cell-based. The conditions noted are these: MDA-MB-231, 72 h. In general terms: Tetrazolium assays rely on reduction of a dye to a coloured formazan, in cell work by metabolically active cells.

As to `COC(=O)c1cc(-c2ccc(NC(=O)c3nc(NC(=O)CO[C@H]4CCN5C(=O)c6cc(OC)c(OC)cc6N=C[C@H]45)cn3C)cc2)cn1C`, the IC50 amounted to 0.036 µM.

`COc1cc2c(cc1OC)C(=O)N1CC[C@H](OCCCO[C@H]3CCN4C(=O)c5cc(OC)c(OC)cc5N=C[C@H]34)[C@H]1C=N2` yielded an IC50 of 0.236 µM.
